Experimental data from the kinase profiling compilation of Christmann-Franck et al. (2016).

What was measured:
Assay in all cases: KINOMEscan competition binding
Settings in all cases: compound 10.0 µM
[1] = target: ROS1 (human) (UniProt P08922)
[2] = target: NEK9 (human) (UniProt Q8TD19)
[3] = target: GAK (human) (UniProt O14976)
[4] = target: PDPK1 (human) (UniProt O15530)
[5] = target: ADCK4 (human) (UniProt Q96D53)
[6] = target: TNK2 (human) (UniProt Q07912)
[7] = target: CHUK (human) (UniProt O15111)
[8] = target: TLK1 (human) (UniProt Q9UKI8)
[9] = target: RIPK2 (human) (UniProt O43353)
[10] = target: JAK1 JH2 pseudokinase (human) (UniProt P23458)
[11] = target: EPHA5 (human) (UniProt P54756)
[12] = target: FGFR1 (human) (UniProt P11362)
[13] = target: PAK4 (human) (UniProt O96013)
[14] = target: CSNK1A1L (human) (UniProt Q8N752)
[15] = target: PKN3 (M.tuberculosis) (UniProt Q6P5Z2)
[16] = target: STK32C (human) (UniProt Q86UX6)
[17] = target: ACVR1B (human) (UniProt P36896)
[18] = target: NEK5 (human) (UniProt Q6P3R8)
[19] = target: EPHB6 (human) (UniProt O15197)
[20] = target: MKNK2 (human) (UniProt Q9HBH9)
[21] = target: PKN1 (human) (UniProt Q16512)
[22] = target: CDK15 (human) (UniProt Q96Q40)
[23] = target: NTRK1 (human) (UniProt P04629)
[24] = target: NEK11 (human) (UniProt Q8NG66)
[25] = target: YES1 (human) (UniProt P07947)
[26] = target: YSK4 (human) (UniProt Q56UN5)
[27] = target: SRPK3 (human) (UniProt Q9UPE1)
[28] = target: STK17B (human) (UniProt O94768)
[29] = target: CDK7 (human) (UniProt P50613)
[30] = target: RIPK1 (human) (UniProt Q13546)
[31] = target: MAP3K4 (human) (UniProt Q9Y6R4)
[32] = target: STK38L (human) (UniProt Q9Y2H1)
[33] = target: LRRK2 (human) (UniProt Q5S007)
[34] = target: CSNK2A1 (human) (UniProt P68400)
[35] = target: CAMK1D (human) (UniProt Q8IU85)
[36] = target: STK16 (human) (UniProt O75716)
[37] = target: NEK7 (human) (UniProt Q8TDX7)
[38] = target: FLT1 (human) (UniProt P17948)
[39] = target: MST1R (human) (UniProt Q04912)
[40] = target: HCK (human) (UniProt P08631)

Sequence of CSNK2A1 (human) (P68400 whole entry, looked up): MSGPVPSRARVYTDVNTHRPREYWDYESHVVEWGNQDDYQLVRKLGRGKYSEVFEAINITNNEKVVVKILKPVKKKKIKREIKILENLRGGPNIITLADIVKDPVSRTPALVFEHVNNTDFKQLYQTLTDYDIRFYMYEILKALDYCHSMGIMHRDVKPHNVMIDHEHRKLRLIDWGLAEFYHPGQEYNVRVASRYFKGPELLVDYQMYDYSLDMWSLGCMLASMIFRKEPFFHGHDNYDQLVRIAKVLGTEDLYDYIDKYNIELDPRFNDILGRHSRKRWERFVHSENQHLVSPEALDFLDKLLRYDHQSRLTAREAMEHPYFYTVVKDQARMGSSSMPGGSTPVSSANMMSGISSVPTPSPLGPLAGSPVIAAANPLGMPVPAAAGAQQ
Sequence of SRPK3 (human) (Q9UPE1 whole entry, looked up): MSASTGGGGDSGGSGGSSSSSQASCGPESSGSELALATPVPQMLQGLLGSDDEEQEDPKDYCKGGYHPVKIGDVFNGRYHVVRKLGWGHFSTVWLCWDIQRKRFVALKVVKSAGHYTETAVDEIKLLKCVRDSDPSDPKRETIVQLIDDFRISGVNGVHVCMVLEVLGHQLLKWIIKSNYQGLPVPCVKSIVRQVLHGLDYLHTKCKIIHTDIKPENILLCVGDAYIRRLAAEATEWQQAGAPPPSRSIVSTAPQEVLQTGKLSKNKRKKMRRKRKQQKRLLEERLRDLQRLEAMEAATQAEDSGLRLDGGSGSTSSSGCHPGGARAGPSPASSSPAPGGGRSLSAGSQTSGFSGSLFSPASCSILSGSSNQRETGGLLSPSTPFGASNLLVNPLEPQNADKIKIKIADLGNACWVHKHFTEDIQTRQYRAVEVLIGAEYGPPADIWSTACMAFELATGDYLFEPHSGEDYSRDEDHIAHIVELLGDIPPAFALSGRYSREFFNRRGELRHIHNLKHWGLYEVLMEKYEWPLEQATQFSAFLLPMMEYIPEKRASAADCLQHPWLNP
Sequence of MST1R (human) (Q04912 whole entry, looked up): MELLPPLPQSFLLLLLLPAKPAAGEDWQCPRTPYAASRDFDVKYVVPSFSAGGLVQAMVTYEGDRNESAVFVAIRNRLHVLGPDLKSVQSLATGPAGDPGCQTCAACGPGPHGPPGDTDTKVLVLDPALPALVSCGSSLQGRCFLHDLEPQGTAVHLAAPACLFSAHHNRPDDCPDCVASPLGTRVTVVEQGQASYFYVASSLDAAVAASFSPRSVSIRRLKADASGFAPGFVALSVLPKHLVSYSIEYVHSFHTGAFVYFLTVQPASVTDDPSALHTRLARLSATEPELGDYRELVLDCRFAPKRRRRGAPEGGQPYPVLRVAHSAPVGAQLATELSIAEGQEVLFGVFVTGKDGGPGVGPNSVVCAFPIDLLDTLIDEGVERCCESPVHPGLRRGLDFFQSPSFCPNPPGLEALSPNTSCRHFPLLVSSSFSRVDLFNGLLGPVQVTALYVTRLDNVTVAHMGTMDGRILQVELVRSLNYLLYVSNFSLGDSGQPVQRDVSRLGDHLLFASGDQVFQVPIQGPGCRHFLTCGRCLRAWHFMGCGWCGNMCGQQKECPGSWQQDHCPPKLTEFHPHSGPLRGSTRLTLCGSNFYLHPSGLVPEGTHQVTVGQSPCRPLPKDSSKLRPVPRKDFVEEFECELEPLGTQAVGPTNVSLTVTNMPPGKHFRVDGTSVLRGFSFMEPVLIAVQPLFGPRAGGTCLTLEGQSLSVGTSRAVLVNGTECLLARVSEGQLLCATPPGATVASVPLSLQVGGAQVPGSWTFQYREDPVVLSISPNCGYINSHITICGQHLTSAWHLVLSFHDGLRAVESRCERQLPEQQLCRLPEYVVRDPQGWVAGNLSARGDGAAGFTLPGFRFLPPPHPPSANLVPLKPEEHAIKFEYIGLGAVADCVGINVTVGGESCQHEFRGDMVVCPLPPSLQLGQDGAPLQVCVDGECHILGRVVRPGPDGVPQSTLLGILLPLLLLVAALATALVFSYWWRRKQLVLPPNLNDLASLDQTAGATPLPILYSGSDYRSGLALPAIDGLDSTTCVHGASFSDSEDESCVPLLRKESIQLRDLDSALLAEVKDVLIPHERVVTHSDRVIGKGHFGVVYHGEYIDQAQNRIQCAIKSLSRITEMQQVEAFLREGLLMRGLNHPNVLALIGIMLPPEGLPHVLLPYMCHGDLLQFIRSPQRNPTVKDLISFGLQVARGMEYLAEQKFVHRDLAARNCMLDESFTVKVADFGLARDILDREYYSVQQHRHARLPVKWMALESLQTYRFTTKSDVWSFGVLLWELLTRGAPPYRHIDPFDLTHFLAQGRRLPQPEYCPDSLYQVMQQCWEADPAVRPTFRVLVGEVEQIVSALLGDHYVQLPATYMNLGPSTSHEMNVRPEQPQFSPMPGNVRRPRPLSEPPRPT
Sequence of FGFR1 (human) (P11362 whole entry, looked up): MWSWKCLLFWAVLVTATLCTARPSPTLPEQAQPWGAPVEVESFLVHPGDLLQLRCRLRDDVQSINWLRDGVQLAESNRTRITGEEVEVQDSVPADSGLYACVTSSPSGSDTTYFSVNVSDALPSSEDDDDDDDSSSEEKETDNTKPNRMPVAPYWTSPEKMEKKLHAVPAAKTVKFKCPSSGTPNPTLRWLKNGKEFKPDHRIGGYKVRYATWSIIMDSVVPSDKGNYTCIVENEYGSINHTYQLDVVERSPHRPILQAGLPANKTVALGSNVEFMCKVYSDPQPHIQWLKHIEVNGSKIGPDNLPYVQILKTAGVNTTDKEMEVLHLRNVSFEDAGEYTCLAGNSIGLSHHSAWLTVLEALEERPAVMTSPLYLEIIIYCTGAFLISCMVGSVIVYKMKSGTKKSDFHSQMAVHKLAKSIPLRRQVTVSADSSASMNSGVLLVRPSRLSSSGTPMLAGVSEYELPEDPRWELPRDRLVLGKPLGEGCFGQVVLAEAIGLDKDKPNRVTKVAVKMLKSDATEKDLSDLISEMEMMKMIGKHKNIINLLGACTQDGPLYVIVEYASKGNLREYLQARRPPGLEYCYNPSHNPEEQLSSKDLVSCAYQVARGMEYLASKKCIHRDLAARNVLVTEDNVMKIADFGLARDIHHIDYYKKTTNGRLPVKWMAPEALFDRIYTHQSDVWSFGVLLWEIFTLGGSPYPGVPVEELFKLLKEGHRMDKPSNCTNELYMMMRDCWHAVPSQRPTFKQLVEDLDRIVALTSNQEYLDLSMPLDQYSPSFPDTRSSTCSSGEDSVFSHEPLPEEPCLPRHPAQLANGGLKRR
Sequence of CAMK1D (human) (Q8IU85 whole entry, looked up): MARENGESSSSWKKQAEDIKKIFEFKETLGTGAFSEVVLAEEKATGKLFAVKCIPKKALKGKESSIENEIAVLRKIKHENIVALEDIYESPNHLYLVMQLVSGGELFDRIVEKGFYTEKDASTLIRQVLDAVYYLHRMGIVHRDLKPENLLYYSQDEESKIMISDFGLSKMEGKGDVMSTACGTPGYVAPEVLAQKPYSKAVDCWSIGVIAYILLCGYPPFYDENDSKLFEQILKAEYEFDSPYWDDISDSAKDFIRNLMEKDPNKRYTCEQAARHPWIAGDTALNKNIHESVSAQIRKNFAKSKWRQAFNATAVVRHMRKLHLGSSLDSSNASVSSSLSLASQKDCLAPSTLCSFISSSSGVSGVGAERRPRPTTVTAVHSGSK
Sequence of RIPK2 (human) (O43353 whole entry, looked up): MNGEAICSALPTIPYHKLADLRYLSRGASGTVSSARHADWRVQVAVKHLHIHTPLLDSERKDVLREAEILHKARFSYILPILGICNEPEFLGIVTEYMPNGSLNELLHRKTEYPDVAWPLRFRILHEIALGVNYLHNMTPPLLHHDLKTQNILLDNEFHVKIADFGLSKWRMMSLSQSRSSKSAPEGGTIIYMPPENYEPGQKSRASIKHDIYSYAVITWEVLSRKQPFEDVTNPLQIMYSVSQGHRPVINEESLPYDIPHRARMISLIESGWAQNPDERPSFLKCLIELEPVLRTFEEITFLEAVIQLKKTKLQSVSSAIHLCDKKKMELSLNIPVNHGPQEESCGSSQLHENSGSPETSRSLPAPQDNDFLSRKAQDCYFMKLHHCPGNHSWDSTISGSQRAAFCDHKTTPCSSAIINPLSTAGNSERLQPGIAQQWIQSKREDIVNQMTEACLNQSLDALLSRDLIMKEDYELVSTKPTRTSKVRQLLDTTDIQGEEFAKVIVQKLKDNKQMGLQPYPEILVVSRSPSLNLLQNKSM
Sequence of NEK7 (human) (Q8TDX7 whole entry, looked up): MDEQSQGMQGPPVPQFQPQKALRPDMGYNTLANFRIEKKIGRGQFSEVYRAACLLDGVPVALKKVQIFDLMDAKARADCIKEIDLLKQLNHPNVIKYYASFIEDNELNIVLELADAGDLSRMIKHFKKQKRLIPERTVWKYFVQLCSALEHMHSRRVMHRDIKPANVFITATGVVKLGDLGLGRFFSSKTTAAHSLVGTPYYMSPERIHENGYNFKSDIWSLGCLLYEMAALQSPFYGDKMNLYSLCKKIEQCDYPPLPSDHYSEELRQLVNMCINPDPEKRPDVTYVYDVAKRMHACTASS
Sequence of PAK4 (human) (O96013 whole entry, looked up): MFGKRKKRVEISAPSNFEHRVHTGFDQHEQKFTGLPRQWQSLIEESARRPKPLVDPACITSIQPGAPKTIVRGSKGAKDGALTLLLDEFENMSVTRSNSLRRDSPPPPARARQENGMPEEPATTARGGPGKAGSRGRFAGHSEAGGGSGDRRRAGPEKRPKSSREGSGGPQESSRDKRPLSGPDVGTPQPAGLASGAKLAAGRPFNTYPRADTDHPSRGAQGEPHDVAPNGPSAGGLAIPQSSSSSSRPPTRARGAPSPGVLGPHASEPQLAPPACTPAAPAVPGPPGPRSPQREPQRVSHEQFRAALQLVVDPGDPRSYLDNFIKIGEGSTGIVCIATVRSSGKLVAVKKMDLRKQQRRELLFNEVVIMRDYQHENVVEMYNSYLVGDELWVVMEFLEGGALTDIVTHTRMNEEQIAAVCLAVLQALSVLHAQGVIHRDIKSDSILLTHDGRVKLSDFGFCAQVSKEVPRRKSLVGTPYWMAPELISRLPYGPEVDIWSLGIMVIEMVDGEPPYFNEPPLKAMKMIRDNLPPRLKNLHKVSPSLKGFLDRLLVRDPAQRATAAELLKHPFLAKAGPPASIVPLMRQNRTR

Row | SMILES | kinase still bound, per cent of control [1] | kinase still bound, per cent of control [2] | kinase still bound, per cent of control [3] | kinase still bound, per cent of control [4] | kinase still bound, per cent of control [5] | kinase still bound, per cent of control [6] | kinase still bound, per cent of control [7] | kinase still bound, per cent of control [8] | kinase still bound, per cent of control [9] | kinase still bound, per cent of control [10] | kinase still bound, per cent of control [11] | kinase still bound, per cent of control [12] | kinase still bound, per cent of control [13] | kinase still bound, per cent of control [14] | kinase still bound, per cent of control [16] | kinase still bound, per cent of control [17] | kinase still bound, per cent of control [18] | kinase still bound, per cent of control [19] | kinase still bound, per cent of control [20] | kinase still bound, per cent of control [21] | also measured
1 | C[C@@H](Oc1cc(-c2cnn(C3CCNCC3)c2)cnc1N)c1c(Cl)ccc(F)c1Cl | 1.1% | 6.2% | 79% | 100% | 3.4% | 2.8% | 100% | 61% | 11% | 1.8% | 1.8% | 46% | 80% | 100% | 100% | 9% | 63% | 0.2% | 11% | 38% | kinase still bound, per cent of control [15]: 30%; kinase still bound, per cent of control [22]: 73%; kinase still bound, per cent of control [23]: 0.1%; kinase still bound, per cent of control [24]: 98%; kinase still bound, per cent of control [25]: 17%; kinase still bound, per cent of control [26]: 2.4%; kinase still bound, per cent of control [27]: 15%; kinase still bound, per cent of control [28]: 100%; kinase still bound, per cent of control [29]: 1.2%; kinase still bound, per cent of control [30]: 5%; kinase still bound, per cent of control [31]: 34%; kinase still bound, per cent of control [32]: 95%; kinase still bound, per cent of control [33]: 97%; kinase still bound, per cent of control [34]: 65%; kinase still bound, per cent of control [35]: 37%; kinase still bound, per cent of control [36]: 63%; kinase still bound, per cent of control [37]: 6.7%; kinase still bound, per cent of control [38]: 25%
2 | CS(=O)(=O)N1CCN(Cc2cc3nc(-c4cccc5[nH]ncc45)nc(N4CCOCC4)c3s2)CC1 | 100% | 100% | 100% | 100% | 100% | 100% | 100% | 100% | 100% | 100% | 100% | 100% | 100% | 100% | 100% | 100% | 100% | 100% | 100% | 100% | kinase still bound, per cent of control [39]: 100%; kinase still bound, per cent of control [40]: 100%; kinase still bound, per cent of control [22]: 100%; kinase still bound, per cent of control [23]: 100%; kinase still bound, per cent of control [25]: 100%; kinase still bound, per cent of control [26]: 100%; kinase still bound, per cent of control [27]: 100%; kinase still bound, per cent of control [28]: 100%; kinase still bound, per cent of control [29]: 100%; kinase still bound, per cent of control [30]: 100%; kinase still bound, per cent of control [31]: 100%; kinase still bound, per cent of control [32]: 100%; kinase still bound, per cent of control [34]: 100%; kinase still bound, per cent of control [35]: 100%; kinase still bound, per cent of control [36]: 100%; kinase still bound, per cent of control [37]: 100%; kinase still bound, per cent of control [38]: 100%
3 | COc1cc(N2CCN(C)CC2)ccc1Nc1ncc2c(n1)N(C)c1ccccc1C(=O)N2C | 7.6% | 100% | 9.8% | 100% | 100% | 3.2% | 100% | 100% | 100% | 100% | 100% | 100% | 100% | 100% | 100% | 100% | 100% | 34% | 0% | 100% | kinase still bound, per cent of control [39]: 100%; kinase still bound, per cent of control [40]: 100%; kinase still bound, per cent of control [22]: 100%; kinase still bound, per cent of control [23]: 100%; kinase still bound, per cent of control [25]: 100%; kinase still bound, per cent of control [26]: 100%; kinase still bound, per cent of control [27]: 100%; kinase still bound, per cent of control [28]: 100%; kinase still bound, per cent of control [29]: 100%; kinase still bound, per cent of control [30]: 100%; kinase still bound, per cent of control [31]: 100%; kinase still bound, per cent of control [32]: 100%; kinase still bound, per cent of control [34]: 100%; kinase still bound, per cent of control [35]: 100%; kinase still bound, per cent of control [36]: 100%; kinase still bound, per cent of control [37]: 100%; kinase still bound, per cent of control [38]: 100%
4 | CCN(CC)CCCCNc1ncc2c(n1)N(C)C(=O)N(c1c(Cl)c(OC)cc(OC)c1Cl)C2 | 100% | 100% | 100% | 100% | 100% | 100% | 100% | 100% | 100% | 100% | 100% | 0.25% | 100% | 100% | 100% | 100% | 100% | 5.2% | 100% | 100% | kinase still bound, per cent of control [39]: 100%; kinase still bound, per cent of control [40]: 100%; kinase still bound, per cent of control [22]: 100%; kinase still bound, per cent of control [23]: 100%; kinase still bound, per cent of control [25]: 100%; kinase still bound, per cent of control [26]: 100%; kinase still bound, per cent of control [27]: 100%; kinase still bound, per cent of control [28]: 100%; kinase still bound, per cent of control [29]: 100%; kinase still bound, per cent of control [30]: 100%; kinase still bound, per cent of control [31]: 5.3%; kinase still bound, per cent of control [32]: 100%; kinase still bound, per cent of control [34]: 100%; kinase still bound, per cent of control [35]: 25%; kinase still bound, per cent of control [36]: 100%; kinase still bound, per cent of control [37]: 100%; kinase still bound, per cent of control [38]: 5.6%
